# Experiments:
# PC-3 cells [1] = assay: Cell cycle analysis by PI staining, flow cytometry; type: cell-based, human; conditions: PC-3, at pre calculated IC50, 48 h
# PC-3 cells [2] = assay: Apoptosis analysis, Annexin V-propidium iodide flow cytometry; type: cell-based, human; conditions: PC-3, 48 h
# [3] = target: thymidylate synthase (TS) (Homo sapiens, UniProt P04818); assay: In vitro thymidylate synthase enzymatic assay; type: biochemical; conditions: compared with pemetrexed
# FAK = conditions: read-out: FAK inhibitor IC50; cited from earlier work
# thymidylate synthase (TS), sequence (P04818 whole entry): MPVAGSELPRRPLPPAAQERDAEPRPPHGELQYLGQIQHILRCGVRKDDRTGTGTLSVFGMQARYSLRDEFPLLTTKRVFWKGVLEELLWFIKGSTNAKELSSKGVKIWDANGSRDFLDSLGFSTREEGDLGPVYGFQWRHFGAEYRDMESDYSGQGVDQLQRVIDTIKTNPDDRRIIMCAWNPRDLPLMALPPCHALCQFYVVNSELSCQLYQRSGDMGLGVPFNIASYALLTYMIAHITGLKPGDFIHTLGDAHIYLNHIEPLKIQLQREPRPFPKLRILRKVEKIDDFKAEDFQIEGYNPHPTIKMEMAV
compound,measurement,setting,value
"C=CCc1ccc(OCc2nn(CN3CCOCC3)c(=S)o2)c(OC)c1 [Compound 17, 5-((4-Allyl-2-methoxyphenoxy)methyl)-3-(morpholinomethyl)-1,3,4-oxadiazole-2(3H)-thione]",percentage of cell population at G1 phase,PC-3 cells [1],29.30%
same,percentage of cell population at G2 phase,PC-3 cells [1],8.61%
same,percentage of cell population at the S phase,PC-3 cells [1],62.07%
same,"necrotic cells (R1, % Parent)",PC-3 cells [2],3.56%
"C=CCc1ccc(OCc2nn(CN3CCCC3)c(=S)o2)c(OC)c1 [Compound 15, 5-((4-Allyl-2-methoxyphenoxy)methyl)-3-(pyrrolidin-1-ylmethyl)-1,3,4-oxadiazole-2(3H) Thione]",TS inhibition in words,[3],comparable TS repression to pemetrexed
N.N.[Cl][Pt][Cl] [Cisplatin],IC50,FAK,8.6 µM

# Reference: publication PMC10233844 (ACS Omega, 2023)
